Assay results: PMC11512107, “Structural and biochemical analysis of ligand binding in yeast Niemann–Pick type C1–related protein” (Life Science Alliance, 2024)
Several values for one entry are separate records, joined by “and”; a condition that tells them apart may be missing. Identical values can stand only once. Entries after “also recorded” stand apart in the source; their conditions may differ.

What was measured:
[1] = biological target: T1, NPC2 (Saccharomyces cerevisiae, UniProt Q12408); assay: In vitro liposome crosslinking assay of pac-lipids with NPC2; format: binding
T1 construct: residues 1–173, UniProt: Q12408; thrombin cleavage site (C); deca-histidine tag (C, cleaved yes); made in house; host or cells: Saccharomyces cerevisiae strain DSY-5
T1 sequence (Q12408 22-173): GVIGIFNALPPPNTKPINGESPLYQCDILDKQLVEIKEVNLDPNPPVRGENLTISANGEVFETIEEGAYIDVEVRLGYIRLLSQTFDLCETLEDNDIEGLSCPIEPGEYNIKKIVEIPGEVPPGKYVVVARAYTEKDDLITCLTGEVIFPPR
Experimental: To compare with the interaction profile of the NTD, crosslinking assays were also performed with purified, delipidated NPC2 (Fig S4A and B). […] NPC2 crosslinks well with all tested pac-lipids but, as for the NTD, most strongly with pacChol (+UV/−UV ratio = 1.91). Robust and consistent crosslinking with pacSph (+UV/−UV ratio = 1.64), pacCer (+UV/−UV = 1.67), and pacPC (+UV/−UV = 1.63) were observed. The crosslinking efficiency for cholesterol and sphingosine analogs was higher for the NTD, whereas crosslinking with ceramide and PC analogs seemed stronger with NPC2.
Lipids from stock vials were dissolved in chloroform and mixed at the desired molar ratio. For in vitro crosslinking, most liposomes consisted of 88.5 mol% DOPC as carrier lipid, 10 mol% DOPS, and 1.5 mol% respective pac-lipid. The pac-lipids were incorporated into liposomes at low concentrations (1.5 mol%) to ensure homogenous distribution and avoid micelle formation. The solvent was evaporated in a rotary evaporator (Hei-VAP Core, Heidolph) for 30 min at 42°C at 150 rpm to create a thin lipid film. Lipid films were hydrated with filtered and degassed PBS (137 mM NaCl, 2.7 mM KCl, 10 mM Na2HPO4, 1.8 mM KH2PO4, pH 7.4). Solutions of hydrated lipids (with a total lipid concentration of 2 mM) were subjected to five freeze–thaw cycles in liquid nitrogen and warm water (42°C) to facilitate breakup of large structures and support formation of smaller multilamellar vesicles. Lipid solutions were stored at −20°C. Before use, liposomes were extruded by passing 20x through a 100-nm pore size polycarbonate filter (Nuclepore; Whatman) using a hand extruder (Avanti Polar Lipids). Extruded liposomes were stored at 4°C, protected from light, and used within 1–2 d.
Extruded liposomes were diluted in PBS until a final lipid concentration of 60 μM, including 1 μM pac-lipid. Purified proteins were added until a final concentration of 1.5 μM in a reaction volume of 100 μl. Protein–liposome mixtures were incubated in 0.5-ml Eppendorf tubes for 30 min at 37°C at 400 rpm (Comfort thermomixer, Eppendorf), then crosslinked (or not) by exposure to 365-nm UV light for 15 min at 4°C using a 100-W mercury lamp (Blak-Ray B-100AP). After crosslinking, the click reaction was performed by adding 0.7 μl of freshly prepared click mix into the sample tubes. The final concentrations of click reagents in sample tubes were 80 μM CuSO4 (Merck), 3 μM TBTA (Merck), 3 μM AF647-picolyl azide (Jena Bioscience), and 80 μM ascorbic acid (Merck). Fresh stock of ascorbic acid solution in water was prepared every time and added to the click mix immediately before starting the click reaction. Click reactions were allowed to proceed for 2 h at 37°C at 400 rpm with the thermomixer. Then, samples were concentrated in a vacuum evaporator for 30 min set to 30°C and supplemented with 4x Lämmli buffer (250 mM Tris, pH 6.8, 9.2% SDS, 40% glycerol, 0.2% bromophenol blue, 100 mM DTT). Samples were boiled for 5 min at 95°C, and clicked protein–lipid complexes were resolved by SDS–PAGE. After extensive destaining in a destain solution (65% water, 25% isopropanol, and 10% acetic acid), the AF647 (a structural analog of Alexa Fluor 647) and Coomassie images were acquired using the LI-COR Odyssey imaging system. Data were evaluated by subtracting background fluorescence, followed by comparing the AF647 signal between crosslinked and non-crosslinked samples, normalized to protein loading based on Coomassie staining. The resulting values are described as +UV/−UV ratios. Statistics were calculated with the Mann–Whitney U test.

[2] = biological target: T2, NTD of NCR1 (Saccharomyces cerevisiae, UniProt Q12200); assay: Competitive binding assays of edelfosine and NBD-Sph to the NTD; details: for Kd: 1 μM NBD-Sph, read-out: apparent KD of NBD-Sph to the NTD
T2 construct: residues 1–249, UniProt: Q12200; thrombin cleavage site (C); deca-histidine tag (C, cleaved yes); made in house; host or cells: Saccharomyces cerevisiae strain DSY-5
Description: Edelfosine is a synthetic lysophospholipid with cytotoxic antifungal effects. […] To investigate this, two competitive binding assays with edelfosine and NBD-Sph were designed (Fig 4). For the first assay, the NTD was saturated by NBD-Sph and the addition of edelfosine led to the exchange of the NTD-bound substrate, causing a drop in NBD-Sph fluorescence by about 50% (Fig 4A). […] To further evaluate the capability of NBD-Sph to participate in micelle formation, each emission spectrum was normalized with varying concentrations of edelfosine (Fig 4B). […] The shift in the wavelength of the emission peaks indicates a change in the environment of the fluorophore ([48], [49], [50]), likely indicating the transition of NBD-Sph from being free in solution to being incorporated into mixed micelles with edelfosine. Initially, emission peaks at ∼530 nm are observed, assigned to be NTD and NBD-Sph complexes (Fig 4C). […] Similarly, for binding of substrates at higher concentrations than their CMC, this binding assay is rather complex because of edelfosine exceeding its CMC. […] Because of these restrictions, the inhibitory constant for edelfosine is referred to as apparent, rather than a real, inhibitor constant (KI).
Based on the above observations, fixed amounts of edelfosine were added to NBD-Sph before titrating with the NTD in the second assay (Fig 4D).
For measuring the ability of edelfosine to outcompete NBD-Sph, 1 μM NBD-Sph and 1 μM NTD were mixed to form the interaction complex before adding increasing amounts of edelfosine. As a control, edelfosine was titrated into a cuvette containing exclusively NBD-Sph in buffer. To measure the competitive binding between NBD-Sph and edelfosine, 1 μM NBD-lipid in Tris buffer was mixed with either 0.1, 0.5, or 0.7 μM edelfosine in the sample cuvette before titration with the NTD.
Before determination of dissociation constants, the measurements were normalized. The protein–lipid binding measurements were normalized to the highest intensity in each dataset. For the competition assay, the data were normalized to the lowest intensity in the dataset to be able to fit all data to Equation (1), the full model for one-site binding for the saturated fraction, f ([27]):(1) RL/Rt=Rt+KD+Lt-Rt+KD+Lt^2-4⋅Rt⋅Lt/2⋅Rt=f
To determine the dissociation constant of edelfosine (referred to as KI) in the competition assay, it can be assumed that the binding is simple and that all added ligand is bound. In this case, the IC50 can be used to calculate a KI using Equation (2) on normalized data:(2) KI=IC50⋅KD/KD+L
The KD is the dissociation constant of the ligand, [L] is the concentration, and IC50 is the concentration of the inhibitor, where half of the ligand is inhibited.

[3] = CMC measurement of NBD-lipids by fluorescence; format: physicochemical; details: MES buffer pH 5.5, fluorescence 460/530 nm
Experimental: The CMC of NBD-Sph was measured by adding increasing concentrations of NBD-Sph to a cuvette containing MES buffer. Between measurements, the solution was mixed and incubated for 10 min. The highest measured concentration of NBD-Sph was 30 μM.
(§1) To determine the CMC, the sigmoid curve was fitted and adjusted to the normalized data: f(x)=l/1+e^−k⋅(x−x0)+b (3)
(§2) Here, l is the scaling of the y-axis, x0 represents the CMC, k determines the sharpness of the fitted curve, and b is the starting position on the y-axis.

[4] = biological target: T1, NPC2; assay: Fluorescence binding assay of NBD-lipids titrated with NPC2
Experimental: (§3) To investigate substrate candidates for the NTD of NCR1 and NPC2, biochemical assays were conducted with purified protein and fluorescent lipid analogs. The purified, delipidated NTD was titrated into NBD-tagged phospholipids and sphingolipids, in which the fluorophore is attached to the hydrophobic tail of the lipid molecules. An increase in signal is based on an enhanced molecular brightness of the NBD-moiety upon binding in a more hydrophobic environment ([28]). This increase in fluorescence correlates with the concentration of the NTD (Fig 3A), which can be used to infer the affinity of the NTD to a given NBD-lipid (Fig 3B–G). […] The measured increase in fluorescence of each NBD-lipid upon titrating the protein was used to determine an apparent dissociation constant (KD) according to a one-site binding model (Equation (1)).
(§4) Fluorescence binding assays were conducted using NBD-PC, NBD-PS, NBD-Cer, and NBD-Sph (Avanti Polar Lipids), and NBD-PI (Prof. Bütikofer), dissolved in ethanol. […] NBD-lipids were excited at 460 nm, and the emission spectra were recorded within a range of 490–600 nm. […] Emission spectra for NBD-lipids were measured as a control and subtracted from the sample emission spectra. The control cuvette was measured every time the sample was measured to correct the data for bleaching of NBD-Sph. […]

[5] = biological target: T2, NTD of NCR1; assay: Fluorescence binding assay of NBD-lipids titrated with the NTD
Experimental: as §3, §4

[6] = CMC measurement of edelfosine with Sudan Black B absorbance; format: physicochemical; details: MES buffer pH 5.5, Sudan Black B absorbance 600 nm, n = 1
Experimental: As edelfosine is not fluorescent, a different approach was used to measure its CMC. The hydrophobic dye, Sudan Black B, was used to stain micelles. The absorption of solutions consisting of MES buffer, Sudan Black, and increasing concentrations of edelfosine was measured using a spectrophotometer (Hitachi U-2010).
as §1, §2

[7] = biological target: T2, NTD of NCR1; assay: In vitro liposome crosslinking assay of pac-lipids with the NTD; format: binding; details: liposomes with 1.5 mol% pac-lipid (1 μM), 1.5 μM NTD, average ratio
Description: In a parallel approach, the substrate scope of the NTD and NPC2 was probed with photo-activatable and clickable (pac) lipids. Pac-lipids contain small chemical modifications for click chemistry reactions, with fluorophores such as AF647 (a structural analog of Alexa Fluor 647), and for UV-activated photo-crosslinking, respectively ([45]). In contrast to NBD-tagged lipids delivered in solution, pac-lipids such as pac-cholesterol (pacChol), pac-phosphatidylcholine (pacPC), pac-sphingosine (pacSph), and pac-ceramide (pacCer) were reconstituted in liposomal membranes (Fig 5A and B). As expected, the delipidated NTD crosslinks with pacChol (average +UV/−UV ratio = 2.11). Crosslinking of the NTD with pacSph (+UV/−UV = 1.73) and, to a lesser extent, with pacCer and pacPC (+UV/−UV = 1.40 and 1.12), respectively, was also detected (Fig 5C and D).
Lipids from stock vials were dissolved in chloroform and mixed at the desired molar ratio. […]
Extruded liposomes were diluted in PBS until a final lipid concentration of 60 μM, including 1 μM pac-lipid. […] Data were evaluated by subtracting background fluorescence, followed by comparing the AF647 signal between crosslinked and non-crosslinked samples, normalized to protein loading based on Coomassie staining. […] Statistics were calculated with the Mann–Whitney U test.

[8] = set-up: method as in PMID 19348755; details: aggregated form; cited from earlier work
[9] = 20 mol% ergosterol: 1 μM pac-lipid and 13 μM ergosterol

T2 sequence (Q12200 20-249): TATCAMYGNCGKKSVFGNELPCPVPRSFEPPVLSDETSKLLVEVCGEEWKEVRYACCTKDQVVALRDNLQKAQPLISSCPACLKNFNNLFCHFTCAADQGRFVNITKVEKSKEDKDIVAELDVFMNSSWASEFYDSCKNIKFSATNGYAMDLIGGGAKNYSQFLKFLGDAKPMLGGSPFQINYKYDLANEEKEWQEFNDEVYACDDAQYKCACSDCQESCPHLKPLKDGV

For `CC(C)[C@@H](C)/C=C/[C@@H](C)[C@H]1CC[C@H]2C3=CC=C4C[C@@H](O)CC[C@]4(C)[C@H]3CC[C@]12C` [Ergosterol, ergosterol], the “effect of ergosterol on NPC2 crosslinking with pacChol and pacPC” value [1, 9] was “does not visibly influence”, the “effect of ergosterol on NPC2 crosslinking with pacSph and pacCer” value [1, 9] was “trend toward increased crosslinking” and the “effect of ergosterol on NPC2 crosslinking with pacSph and pacCer” value ([1]; 20 mol% ergosterol: 1 μM pac-lipid and 13 μM ergosterol, listed as ergosterol) was “increased crosslinking”.
In the case of `NC(CO)C(O)C=CCCCCCCCCCCCCCNc1ccc([N+](=O)[O-])c2nonc12` (centres unmarked) [NBD-Sph], the Kd ([2]; 0.0 μM edelfosine, pH 7.5) is reported as 0.12 µM and ~0.12 µM, the Kd ([2]; 0.1 μM edelfosine, pH 7.5) is reported as 0.12 ± 0.01 µM and the Kd ([2]; 0.5 μM edelfosine, pH 7.5) is reported as 0.16 ± 0.06 µM. For the same molecule, the Kd ([2]; 0.7 μM edelfosine, pH 7.5) was 0.21 µM and ~0.21 µM, the “critical micelle concentration (CMC)” value [3] was about 13 µM and the Kd ([4]; pH 5.5, 1 μM NBD-lipid, values marked ° are apparent KD) was ~0.58 µM and 0.58 µM. The Kd ([4]; pH 7.5, 1 μM NBD-lipid) was ~0.53 µM and 0.53 µM, the Kd ([5]; pH 5.5, 1 μM NBD-lipid, values for NBD-PC, NBD-PS, NBD-Cer (marked °) are apparent KD, above CMC) was ~0.25 µM and 0.25 µM and the Kd ([5]; pH 7.5, 1 μM NBD-lipid) was ~0.12 µM and 0.12 µM.
For `CCCCCCCCCCCCCCCCCCOCC(COP(=O)([O-])OCC[N+](C)(C)C)OC` (centres unmarked) [edelfosine], the IC50 ([2]; 1 μM NBD-Sph mixed with 1 μM NTD, 0 to 4 μM edelfosine, pH 7.5, read-out: IC50 of edelfosine against NBD-Sph binding to the NTD) was 0.48 µM and 0.5 µM, the “drop in NBD-Sph fluorescence on addition of edelfosine” value ([2]; NTD saturated by NBD-Sph, pH 7.5) was “about 50%” and the Ki ([2]; calculated from IC50 with Equation (2), apparent, edelfosine exceeds its CMC, read-out: apparent inhibitor constant (KI)) was about 0.05 µM. The “critical micelle concentration (CMC)” value [6] was 0.7 µM and 0.715 µM and the “effect of edelfosine on NPC2 crosslinking with pac-lipids” value ([1]; fivefold excess: 1 μM pac-lipid and 5 μM edelfosine in liposomes) was “no noticeable inhibition of crosslinking; also recorded: no noticeable effect”.
In the case of `C#CCCCCOC(=O)CCC(C)C1CCC2C3CC4(N=N4)C4CC(O)CCC4(C)C3CCC12C` (centres unmarked) [pacChol], the “+UV/−UV ratio (crosslinking with NPC2)” value ([1]; liposomes with 1.5 mol% pac-lipid (1 μM), 1.5 μM NPC2) is reported as 1.91 and the “+UV/−UV ratio (crosslinking with NTD)” value [7] is reported as 2.11.
For `CCCCCCCCCCCCC/C=C/[C@@H](O)[C@@H](N)CO` [sphingosine], the pKa [8] is listed as 6.61.
